The values that follow come from the supplement of paper PMC10307832.

Assay in all cases: relative viability (nuclei count vs DMSO), 5 days (fraction); higher = more cells survive
Compound in assay [1]: CS(=O)(=O)CCNCc1ccc(-c2ccc3ncnc(Nc4ccc(OCc5cccc(F)c5)c(Cl)c4)c3c2)o1 [Lapatinib] + C[C@@H](Oc1cc(-c2cnn(C3CCNCC3)c2)cnc1N)c1c(Cl)ccc(F)c1Cl [Crizotinib] (partner 1 µM)
In short, it runs like this: (§1)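 Nuclei were stained with Hoechst during a one-step fixation (final 0.05% Triton X-100, 1% formaldehyde, 1 ug/ml Hoechst) carried out 5 days after dosing, then counted on 4× images. The cells, lung cancer lines in 1536-well plates, had been dosed by pin tool the day after seeding with one drug alone or a fixed anchor-drug dose plus five library-drug doses (not always all listed) in √10 steps. Relative viability is the nuclei count in treated wells divided by that in vehicle wells, and each value is the median of duplicate plates.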

Compound in assay [2]: CC1=NC=CC(=C1)C2=CC=C(C=C2)CC(=O)NC3=CC=C(C=C3)C4=CN=CC=C4 [Wnt-C59] + C[C@@H](Oc1cc(-c2cnn(C3CCNCC3)c2)cnc1N)c1c(Cl)ccc(F)c1Cl [Crizotinib] (partner 1 µM)
In short, it runs like this:
as §1

Compound in assay [3]: CC1=NC=CC(=C1)C2=CC=C(C=C2)CC(=O)NC3=CC=C(C=C3)C4=CN=CC=C4 [Wnt-C59]
Put shortly: (§2)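 For viability, nuclei in each treated well were divided by nuclei in vehicle wells and the median across plates was taken. Lung cancer cell lines in 1536-well plates were pinned with five library-drug doses (not always all listed) spaced by √10, cultured 5 days without medium change, and imaged at 4× after Hoechst staining, with plates passing only at control CV below 25% and at least one doubling.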

Compound in assay [4]: CS(=O)(=O)CCNCc1ccc(-c2ccc3ncnc(Nc4ccc(OCc5cccc(F)c5)c(Cl)c4)c3c2)o1 [Lapatinib]
Put shortly:
as §2

For the cell line UMC-11, the relative viability is 0.541 in assay [1] (first compound 0.02 µM); 0.508 in assay [1] (first compound 0.06325 µM); 0.672 in assay [1] (first compound 0.2 µM); 0.578 in assay [1] (first compound 0.6325 µM); 0.659 in assay [1] (first compound 2 µM); 0.659 in assay [2] (first compound 0.001 µM). Further, the relative viability in assay [2] (first compound 0.01 µM) was 0.567; in assay [2] (first compound 0.03162 µM), 0.588; in assay [2] (first compound 0.1 µM) it was 0.518; in assay [3] (0.001 µM) it was 0.909; in assay [3] (0.01 µM), 1.04; in assay [3] (0.03162 µM), 1.08. Besides, the relative viability in assay [3] (0.1 µM) came out at 1.03; in assay [4] (0.02 µM), 0.906; in assay [4] (0.06325 µM), 0.935; in assay [4] (0.2 µM) it was 1.02; in assay [4] (0.6325 µM), 0.998; in assay [4] (2 µM) it was 0.942. Besides, the relative viability in assay [4] (2 µM, anchor plate) was 1.02.
